From US10537558B2 (Bantam Pharmaceutical, LLC, priority 2015, dated 2020) come the findings set out here.

The subject of the assay is BJAB cells. The assay is described as follows: BJAB cell proliferation (Cell Titer Glo). The conditions noted are these: Homo sapiens, read-out: EC50. Format: cell-based. A digest of the protocol:
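BJAB cells exposed to serially diluted compounds (0.1% DMSO final) for about 72 h at 37 °C. Proliferation read by Cell Titer Glo luminescence as percent of untreated controls; EC50 from non-linear regression of dose-response data.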
A general note: In ATP-based viability assays light output follows the ATP content of the culture.

By EC50 is commonly meant the concentration giving half of the maximal effect. As for `COc1cc(C#N)cc(-c2c(C)nn(-c3nc(-c4ccc(Cl)c(Cl)c4)c(SC(C)C)s3)c2C(=O)O)c1` [Compound 83, 4-(3-cyano-5-methoxyphenyl)-1-(4-(3,4-dichlorophenyl)-5-(isopropylthio)thiazol-2-yl)-3-methyl-1H-pyrazole-5-carboxylic acid], the EC50 was in the range of 5 to 10 µM. In the case of `Cc1ccc(-c2nc(-n3nc(C)c(-c4cccc(F)c4)c3C(=O)O)sc2SC(C)C)cc1F` [Compound 214, 1-(4-(3-fluoro-4-methylphenyl)-5-(isopropylthio)thiazol-2-yl)-4-(3-fluorophenyl)-3-methyl-1H-pyrazole-5-carboxylic acid], the EC50 was 1 to 5 µM.

`Cc1nn(-c2nc(-c3ccc(C(F)(F)F)cc3)c(SC(C)C)s2)c(C(=O)O)c1-c1cc(Cl)cc(Cl)c1` [Compound 219, 4-(3,5-dichlorophenyl)-1-(5-(isopropylthio)-4-(4-(trifluoromethyl)phenyl)thiazol-2-yl)-3-methyl-1H-pyrazole-5-carboxylic Acid]: the EC50 was < 1 µM. For `Cc1nn(-c2nc(-c3ccc(Cl)c(Cl)c3)c(SC(C)C)s2)c(C(=O)O)c1-c1cc(C(F)(F)F)cc(C(F)(F)F)c1` [Compound 60, 4-(3,5-bis(trifluoromethyl)phenyl)-1-(4-(3,4-dichlorophenyl)-5-(isopropylthio)thiazol-2-yl)-3-methyl-1H-pyrazole-5-carboxylic Acid] the value was 1 to 5 µM; for `CCC(C)Sc1sc(-n2nc(C)c(-c3cc(C)nc(C)c3)c2C(=O)O)nc1-c1ccc(Cl)c(Cl)c1` (stereo not drawn) [Compound 33b], < 1 µM; for `Cc1nn(-c2nc(-c3ccc(Cl)c(Cl)c3)c(SC(C)C)s2)c(C(=O)O)c1-c1cccc(NS(C)(=O)=O)c1` [Compound 125, 1-(4-(3,4-dichlorophenyl)-5-(isopropylthio)thiazol-2-yl)-3-methyl-4-(3-(methylsulfonamido)phenyl)-1H-pyrazole-5-carboxylic acid], > 50 µM. For `Cc1nn(-c2nc(-c3ccc(Cl)c(Cl)c3)c(SC(C)C)s2)c(C(=O)N2CCC(CO)CC2)c1-c1cc(C(F)(F)F)cc(C(F)(F)F)c1` [Compound 141, (4-(3,5-bis(trifluoromethyl)phenyl)-1-(4-(3,4-dichlorophenyl)-5-(isopropylthio)thiazol-2-yl)-3-methyl-1H-pyrazol-5-yl)(4-(hydroxymethyl)piperidin-1-yl)methanone] the value was > 40 µM; for `Cc1nn(-c2nc(-c3ccc(Cl)c(Cl)c3)c(SC(C)C)s2)c(C(=O)N2CCC(CN)CC2)c1-c1cc(C(F)(F)F)cc(C(F)(F)F)c1` [Compound 136, (4-(aminomethyl)piperidin-1-yl)(4-(3,5-bis(trifluoromethyl)phenyl)-1-(4-(3,4-dichlorophenyl)-5-(isopropylthio)thiazol-2-yl)-3-methyl-1H-pyrazol-5-yl)methanone], 1 to 5 µM; for `COCc1cccc(-c2c(C)nn(-c3nc(-c4ccc(Cl)c(Cl)c4)c(SC(C)C)s3)c2C(=O)O)c1` [Compound 85, 1-(4-(3,4-dichlorophenyl)-5-(isopropylthio)thiazol-2-yl)-4-(3-(methoxymethyl)phenyl)-3-methyl-1H-pyrazole-5-carboxylic acid], 5 to 10 µM. The result for `Cc1cc(N)cc(-c2c(C)nn(-c3nc(-c4ccc(Cl)c(Cl)c4)c(SC(C)C)s3)c2C(=O)O)c1` [Compound 153, 4-(3-amino-5-methylphenyl)-1-(4-(3,4-dichlorophenyl)-5-(isopropylthio)thiazol-2-yl)-3-methyl-1H-pyrazole-5-carboxylic acid] reads > 25 µM. Take `COC(=O)c1c(Cc2ccccc2[N+](=O)[O-])c(C)nn1-c1nc(-c2ccc(Cl)c(Cl)c2)cs1` [Compound 1, methyl 1-(4-(3,4-dichlorophenyl)thiazol-2-yl)-3-methyl-4-(2-nitrobenzyl)-1H-pyrazole-5-carboxylate]: the EC50 is > 50 µM. For `Cc1nn(-c2nc(-c3ccc(Cl)c(Cl)c3)c(SC(C)C)s2)c(C(=O)O)c1-c1cnn(CC(C)C)c1` [Compound 133, 2-(4-(3,4-dichlorophenyl)-5-(isopropylthio)thiazol-2-yl)-2′-isobutyl-5-methyl-4,4′-bi(2H-pyrazole)-3-carboxylic acid] the value was 10 to 25 µM; for `Cc1nn(-c2nc(-c3coc4ccccc34)c(SC(C)C)s2)c(C(=O)O)c1-c1cccc(F)c1` [Compound 234, 1-(4-(benzofuran-3-yl)-5-(isopropylthio)thiazol-2-yl)-4-(3-fluorophenyl)-3-methyl-1H-pyrazole-5-carboxylic Acid], > 40 µM.

As for `Cc1cccc(-c2c(C)nn(-c3nc(-c4ccc(Cl)c(Cl)c4)c(SC(C)C)s3)c2C(=O)O)c1` [Compound 118, 1-(4-(3,4-dichlorophenyl)-5-(isopropylthio)thiazol-2-yl)-3-methyl-4-m-tolyl-1H-pyrazole-5-carboxylic Acid], the 50% effective concentration (EC50) fell in the range of 1 to 5 µM. For `Cc1nnc(-c2c(C)nn(-c3nc(-c4ccc(Cl)c(Cl)c4)c(SC(C)C)s3)c2C(=O)O)s1` [Compound 82, 1-(4-(3,4-dichlorophenyl)-5-(isopropylthio)thiazol-2-yl)-3-methyl-4-(5-methyl-1,3,4-thiadiazol-2-yl)-1H-pyrazole-5-carboxylic acid] the value was > 40 µM.
